Experimental data from US20100298370A1, “BENZOTHIAZOLYL THIENOPYRIDINE DERIVATIVES AND USES THEREOF” (priority 2006, published 2010).

Target: T1, VEGF binding to heparin (HS-GAG) (Homo sapiens, UniProt P15692)
T1 construct: purchased Research and Development Systems
T1 sequence (P15692 27-191 isoform P15692-4): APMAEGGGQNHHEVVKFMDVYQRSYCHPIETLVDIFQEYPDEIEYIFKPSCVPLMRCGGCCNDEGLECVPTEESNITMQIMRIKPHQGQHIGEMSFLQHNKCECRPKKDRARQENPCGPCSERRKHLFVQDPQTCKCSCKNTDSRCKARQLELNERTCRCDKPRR
Assay: In vitro VEGF to HS-GAG binding assay (ELISA, heparin-BSA coated plate)
Description: An in vitro assay was used to assess the ability of test compounds of general formulas I and II to inhibit the interaction of VEGF with HS-GAGs. The assay was designed to for determine the concentration required for 50% inhibition (IC-50) for each specific compound. The test compounds were purchased from Life Chemicals Ltd. (Kiev, Ukraine), and the GAG used was heparin (heparin grade I-A; Sigma) conjugated to bovine serum albumin (Sigma) and diluted 1:200 in phosphate-buffered saline (PBS; pH 7.3). The heparin was added to a 96-well polystyrene ELISA plate (NUNC; 0.1 ml per well) and incubated overnight at 4° C. Following the incubation, the plate was washed thoroughly, by immersion, with de-ionized water and then with PBS (pH 7.3) containing Tween 20 (Sigma, 0.05%). The ELISA plate was then blocked with BSA (ICN, 3%, 200 μl per well) for 1 hour at room temperature. Following blocking, the plate was washed with de-ionized water, and then twice with PBS (pH 7.3) containing Tween 20. Recombinant human VEGF (Research and Development Systems) dissolved in PBS supplemented with BSA (0.1%) was added to the ELISA plate. The test compounds were dissolved in DMSO (MERCK), diluted in PBS and added to the wells at concentrations ranging from 0.01 to 200 μM to obtain a final volume 100 μl per well, and incubated for 60 minutes at room temperature with shaking. Following incubation, the plate was washed with de-ionized water and PBS (pH 7.3) containing Tween 20. Anti-human VEGF (1:2000; Research and Development Systems) diluted in PBS supplemented with BSA (1%) was added to the ELISA plate (100 per well) and incubated for 60 minutes at room temperature with shaking. Following incubation, the plate was washed with de-ionized water and then with PBS (pH 7.3) containing Tween 20. Streptavidin-HRP (1:200; Research and Development Systems Cat. No. DY998) diluted in PBS supplemented with BSA (1%) was added to the ELISA plate (100 per well) and incubated for 20 minutes at room temperature with shaking. The plate was then washed with de-ionized water and twice with PBS (pH 7.3) containing Tween 20. The peroxidase substrate chromogen tetramethyl benzidine (TMB; Dako) was added (100 μl per well) to the ELISA plate and incubated at room temperature. After 15 minutes, ELISA Stop Solution (hydrochloric acid 1N, sulfuric acid 3N) was added (100 μl per well) to stop the peroxidase catalyzed colorimetric reaction. The Optical Density (OD) of the samples was measured at 450 nm using an ELISA plate reader (Dynatech MR5000). Data were analyzed with Graphpad Prism software and IC-50 values were determined.
Percent inhibition at 30 μM concentration is shown and for selected compounds IC-50 was established.

| inhibition at 30 µM [%] | IC50 [nM] | SMILES |
| --- | --- | --- |
| 55 | – | O=C(COc1ccc(Cl)cc1)Nc1sc2c(c1-c1nc3ccccc3s1)CCN(Cc1ccccc1)C2 [Compound 27, N-[3-(2-benzothiazolyl)-4,5,6,7-3-tetrahydro-6-phenylmethylthieno[2,3-c]pyridin-2-yl]-2-(4-chlorophenoxy)acetamide] |
| 79 | 900 | CC(C)(C)C(=O)Nc1sc2c(c1-c1nc3ccccc3s1)CCN(Cc1ccccc1)C2 [Compound 21, N-[3-(2-benzothiazolyl)-4,5,6,7-tetrahydro-6-phenylmethyllthieno[2,3-c]pyridin-2-yl]-2,2-dimethylpropaneamide] |
| 31 | – | CN1CCc2c(sc(NC(=O)c3cc4c(ccc5ccccc54)oc3=O)c2-c2nc3ccccc3s2)C1 [Compound 32, N-[3-(2-benzothiazolyl)-4,5,6,7-tetrahydro-6-methylthieno[2,3-c]pyridin-2-yl]-3-oxo-3H-naphtho[2,1-b]pyran-2-carboxamide] |
| 61 | – | CN1CCc2c(sc(NC(=O)c3cccc(C(F)(F)F)c3)c2-c2nc3ccccc3s2)C1 [Compound 16, N-[3-(2-benzothiazolyl)-4,5,6,7-tetrahydro-6-methylthieno[2,3-c]pyridin-2-yl]-3-trifluoromethylbenzamide] |
| 77 | 300 | CCN1CCc2c(sc(NC(=O)c3cccc(N4C(=O)CCC4=O)c3)c2-c2nc3ccccc3s2)C1 [Compound 17, N-[3-(2-benzothiazolyl)-4,5,6,7-tetrahydro-6-ethylthieno[2,3-c]pyridin-2-yl]-3-(2,5-dioxo-1-pyrrolidinyl)benzamide] |
| 35 | – | CCN1CCc2c(sc(NC(=O)c3cc4cc([N+](=O)[O-])ccc4s3)c2-c2nc3ccccc3s2)C1 [Compound 28, N-[3-(2-benzothiazolyl)-4,5,6,7-tetrahydro-6-ethylthieno[2,3-c]pyridin-2-yl]-benzo[b]thiophene-5-nitro-2-carboxamide] |
| 31 | – | CC(=O)N1CCc2c(sc(NC(=O)c3cccc(Br)c3)c2-c2nc3ccccc3s2)C1 [Compound 36, N-[3-(2-benzothiazolyl)-4,5,6,7-tetrahydro-6-acetylthieno[2,3-c]pyridin-2-yl]-3-bromobenzamide] |
| 70 | 500 | CCN1CCc2c(sc(NC(=O)c3ccccc3)c2-c2nc3ccccc3s2)C1 [Compound 9, N-[3-(2-benzothiazolyl)-4,5,6,7-tetrahydro-6-ethylthieno[2,3-c]pyridin-2-yl]-benzamide] |
| 57 | – | O=C(Nc1sc2c(c1-c1nc3ccccc3s1)CCN(Cc1ccccc1)C2)c1cccs1 [Compound 23, N-[3-(2-benzothiazolyl)-4,5,6,7-tetrahydro-6-phenylmethylthieno[2,3-c]pyridin-2-yl]-2-thiophenecarboxamide] |
| 50 | – | CCN1CCc2c(sc(NC(=O)CCS(=O)(=O)c3ccccc3)c2-c2nc3ccccc3s2)C1 [Compound 38, N-[3-(2-benzothiazolyl)-4,5,6,7-tetrahydro-6-ethylthieno[2,3-c]pyridin-2-yl]-3-(phenylsulfonyl)propanamide] |
| 41 | – | CCN1CCc2c(sc(NC(=O)c3ccc(OC)cc3)c2-c2nc3ccccc3s2)C1 [Compound 11, N-[3-(2-benzothiazolyl)-4,5,6,7-tetrahydro-6-ethylthieno[2,3-c]pyridin-2-yl]-4-methoxybenzamide] |
| 73 | 200 | CCN1CCc2c(sc(NC(=O)c3cc(OC)c(OC)c(OC)c3)c2-c2nc3ccccc3s2)C1 [Compound 14, N-[3-(2-benzothiazolyl)-4,5,6,7-tetrahydro-6-ethylthieno[2,3-c]pyridin-2-yl]-(3,4,5-trimethoxy)benzamide] |
| 75 | 350 | CC(=O)N1CCc2c(sc(NC(=O)c3ccc(C#N)cc3)c2-c2nc3ccccc3s2)C1 [Compound 37, N-[3-(2-benzothiazolyl)-4,5,6,7-tetrahydro-6-acetylthieno[2,3-c]pyridin-2-yl]-4-cyanobenzamide] |
